Values of other authors in patent US20030003013A1, “Disinfectant composition and method for disinfecting and/or sterilising a dental unit” ([…].p.A., priority 2001, published 2003).

Tested on: bacteria and spores on a surface / water line of a dental unit

## O=CCCCC=O [glutaraldehyde]
glutaraldehyde
  contact time to reach the sporicidal level required to achieve sterility: five
Glutaraldehyde left in contact with a surface before flushing out
  contact time for high-level disinfection: twenty to thirty
Glutaraldehyde left in contact with the surface before flushing out
  contact time to disinfect a surface: approximately five
